How the values were obtained:
[1] = biological target: Sigma intracellular receptor 2 (Homo sapiens, UniProt Q5BJF2); test: (§1) PDSP Secondary Binding target: TMEM97 - Compounds are tested at 10 uM concentration, plate are incubated at room temperature in the dark for 90 minutes. Reaction are stopped by vacuum filtration onto 0.3% polyethyleneimine soaked filter mats using Filtermate harvester. Scintillation cocktail is then melted onto microwave-dried filters on a hot plate and the radio activity is counted in Microbia counter.
[2] = biological target: Kappa-type opioid receptor (Homo sapiens, UniProt P41145); test: as §1, with “OPRK1” for “TMEM97”
[3] = biological target: Sigma non-opioid intracellular receptor 1 (Homo sapiens, UniProt Q99720); test: as §1, with “SIGMAR1” for “TMEM97”
[4] = biological target: Beta-3 adrenergic receptor (Homo sapiens, UniProt P13945); test: as §1, with “ADRB3” for “TMEM97”
D(3) dopamine receptor = D(3) dopamine receptor (Homo sapiens, UniProt P35462); test: as §1, with “DRD3” for “TMEM97”
Translocator protein = Translocator protein (Homo sapiens, UniProt P30536); test: as §1, with “TSPO” for “TMEM97”
[5] = biological target: T1, Alpha-2B adrenergic receptor (Homo sapiens, UniProt P18089); test: as §1, with “ADRA2B” for “TMEM97”
T1 sequence (P18089 whole entry): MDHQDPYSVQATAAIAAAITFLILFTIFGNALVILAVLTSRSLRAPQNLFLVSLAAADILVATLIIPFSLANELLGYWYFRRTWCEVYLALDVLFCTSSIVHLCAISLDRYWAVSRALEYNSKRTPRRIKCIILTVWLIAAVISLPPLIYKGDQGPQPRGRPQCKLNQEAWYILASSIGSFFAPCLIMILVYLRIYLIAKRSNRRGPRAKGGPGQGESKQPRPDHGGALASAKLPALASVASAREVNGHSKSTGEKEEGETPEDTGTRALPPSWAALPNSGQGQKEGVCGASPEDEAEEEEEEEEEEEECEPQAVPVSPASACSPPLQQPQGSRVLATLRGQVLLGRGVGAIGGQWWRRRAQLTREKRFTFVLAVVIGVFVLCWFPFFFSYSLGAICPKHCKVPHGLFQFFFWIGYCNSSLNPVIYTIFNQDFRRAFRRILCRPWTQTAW

[6] = biological target: Sodium-dependent noradrenaline transporter (Homo sapiens, UniProt P23975); test: as §1, with “SLC6A2” for “TMEM97”
Mu-type opioid receptor = Mu-type opioid receptor (Homo sapiens, UniProt P35372); test: as §1, with “OPRM1” for “TMEM97”
[7] = biological target: Sodium-dependent serotonin transporter (Homo sapiens, UniProt P31645); test: as §1, with “SLC6A4” for “TMEM97”
D(1B) dopamine receptor = D(1B) dopamine receptor (Homo sapiens, UniProt P21918); test: as §1, with “DRD5” for “TMEM97”
[8] = biological target: T2, Alpha-2A adrenergic receptor (Homo sapiens, UniProt P08913); test: as §1, with “ADRA2A” for “TMEM97”
T2 sequence (P08913 whole entry): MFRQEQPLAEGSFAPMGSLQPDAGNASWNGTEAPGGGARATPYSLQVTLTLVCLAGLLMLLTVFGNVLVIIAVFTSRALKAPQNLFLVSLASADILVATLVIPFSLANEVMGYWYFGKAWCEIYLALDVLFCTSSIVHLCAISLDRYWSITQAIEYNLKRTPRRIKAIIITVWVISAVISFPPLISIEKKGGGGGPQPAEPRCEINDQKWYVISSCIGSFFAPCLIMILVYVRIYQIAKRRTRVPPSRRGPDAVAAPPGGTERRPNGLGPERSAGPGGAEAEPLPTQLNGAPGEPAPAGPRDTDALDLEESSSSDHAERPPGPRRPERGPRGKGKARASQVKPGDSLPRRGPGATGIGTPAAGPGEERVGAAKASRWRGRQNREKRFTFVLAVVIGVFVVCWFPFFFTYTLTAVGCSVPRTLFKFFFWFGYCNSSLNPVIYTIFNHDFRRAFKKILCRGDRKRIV

[9] = biological target: T3, Alpha-2C adrenergic receptor (Homo sapiens, UniProt P18825); test: as §1, with “ADRA2C” for “TMEM97”
T3 sequence (P18825 whole entry): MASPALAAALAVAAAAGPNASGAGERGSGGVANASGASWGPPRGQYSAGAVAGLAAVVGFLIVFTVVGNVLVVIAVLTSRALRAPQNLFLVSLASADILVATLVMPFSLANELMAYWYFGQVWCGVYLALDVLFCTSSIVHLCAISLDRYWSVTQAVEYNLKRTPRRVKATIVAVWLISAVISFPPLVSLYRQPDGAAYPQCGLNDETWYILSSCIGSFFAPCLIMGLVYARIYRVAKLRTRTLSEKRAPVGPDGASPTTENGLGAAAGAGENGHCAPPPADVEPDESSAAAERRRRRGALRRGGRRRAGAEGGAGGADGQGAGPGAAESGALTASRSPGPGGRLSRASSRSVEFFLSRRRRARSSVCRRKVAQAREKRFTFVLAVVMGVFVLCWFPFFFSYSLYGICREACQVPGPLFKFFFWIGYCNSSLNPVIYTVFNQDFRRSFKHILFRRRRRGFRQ

[10] = biological target: Sodium-dependent dopamine transporter (Homo sapiens, UniProt Q01959); test: as §1, with “SLC6A3” for “TMEM97”
D(4) dopamine receptor = biological target: T4, D(4) dopamine receptor (Homo sapiens, UniProt P21917); test: as §1, with “DRD4” for “TMEM97”
T4 sequence (P21917 whole entry): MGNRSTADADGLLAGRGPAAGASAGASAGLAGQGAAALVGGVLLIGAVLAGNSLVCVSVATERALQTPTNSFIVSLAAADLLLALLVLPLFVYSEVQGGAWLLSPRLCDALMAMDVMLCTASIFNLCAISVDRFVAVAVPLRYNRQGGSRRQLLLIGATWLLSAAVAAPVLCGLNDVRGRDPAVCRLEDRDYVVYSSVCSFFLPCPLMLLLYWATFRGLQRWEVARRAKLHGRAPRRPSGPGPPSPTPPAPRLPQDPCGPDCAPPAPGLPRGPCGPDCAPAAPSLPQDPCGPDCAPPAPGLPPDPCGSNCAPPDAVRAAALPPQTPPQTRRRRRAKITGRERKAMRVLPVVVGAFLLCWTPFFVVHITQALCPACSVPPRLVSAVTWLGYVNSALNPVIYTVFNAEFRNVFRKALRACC

[11] = biological target: T5, Alpha-1B adrenergic receptor (Homo sapiens, UniProt P35368); test: as §1, with “ADRA1B” for “TMEM97”
T5 sequence (P35368 whole entry): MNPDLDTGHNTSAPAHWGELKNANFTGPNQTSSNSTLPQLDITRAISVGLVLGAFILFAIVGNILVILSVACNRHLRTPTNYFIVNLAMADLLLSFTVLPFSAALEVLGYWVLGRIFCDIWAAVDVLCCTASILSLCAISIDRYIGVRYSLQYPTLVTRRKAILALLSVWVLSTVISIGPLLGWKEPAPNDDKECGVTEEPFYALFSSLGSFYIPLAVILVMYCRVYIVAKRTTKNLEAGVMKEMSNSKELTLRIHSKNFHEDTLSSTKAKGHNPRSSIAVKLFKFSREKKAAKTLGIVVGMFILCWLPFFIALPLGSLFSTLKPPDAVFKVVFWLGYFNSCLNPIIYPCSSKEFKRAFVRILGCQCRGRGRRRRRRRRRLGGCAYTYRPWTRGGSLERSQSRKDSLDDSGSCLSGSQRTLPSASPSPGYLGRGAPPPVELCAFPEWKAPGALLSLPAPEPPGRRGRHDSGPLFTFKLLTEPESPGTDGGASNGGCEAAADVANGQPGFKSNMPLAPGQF

[12] = biological target: 5-hydroxytryptamine receptor 2B (Homo sapiens, UniProt P41595); test: as §1, with “HTR2B” for “TMEM97”
[13] = biological target: T6, Muscarinic acetylcholine receptor M5 (Homo sapiens, UniProt P08912); test: as §1, with “CHRM5” for “TMEM97”
T6 sequence (P08912 whole entry): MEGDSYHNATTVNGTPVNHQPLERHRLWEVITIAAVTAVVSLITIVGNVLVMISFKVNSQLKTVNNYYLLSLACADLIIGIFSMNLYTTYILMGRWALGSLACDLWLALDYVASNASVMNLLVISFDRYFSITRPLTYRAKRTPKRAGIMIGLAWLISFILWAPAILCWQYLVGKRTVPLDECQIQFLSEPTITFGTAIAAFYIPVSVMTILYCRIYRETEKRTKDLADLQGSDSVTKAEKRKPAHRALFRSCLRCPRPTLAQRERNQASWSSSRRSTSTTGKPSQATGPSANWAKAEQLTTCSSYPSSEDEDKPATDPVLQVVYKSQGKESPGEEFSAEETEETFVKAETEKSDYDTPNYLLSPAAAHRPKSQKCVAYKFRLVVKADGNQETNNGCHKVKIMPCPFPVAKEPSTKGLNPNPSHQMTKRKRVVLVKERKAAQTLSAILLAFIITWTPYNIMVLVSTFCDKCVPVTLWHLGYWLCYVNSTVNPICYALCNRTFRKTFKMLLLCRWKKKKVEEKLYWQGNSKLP

Sequence of Translocator protein (P30536 whole entry): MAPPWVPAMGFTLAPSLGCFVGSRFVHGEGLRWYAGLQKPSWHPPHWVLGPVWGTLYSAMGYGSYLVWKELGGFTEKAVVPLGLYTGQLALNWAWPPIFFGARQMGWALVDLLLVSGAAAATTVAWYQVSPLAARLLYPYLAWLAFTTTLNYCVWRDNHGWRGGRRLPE
Sequence of Sigma non-opioid intracellular receptor 1 (Q99720 whole entry): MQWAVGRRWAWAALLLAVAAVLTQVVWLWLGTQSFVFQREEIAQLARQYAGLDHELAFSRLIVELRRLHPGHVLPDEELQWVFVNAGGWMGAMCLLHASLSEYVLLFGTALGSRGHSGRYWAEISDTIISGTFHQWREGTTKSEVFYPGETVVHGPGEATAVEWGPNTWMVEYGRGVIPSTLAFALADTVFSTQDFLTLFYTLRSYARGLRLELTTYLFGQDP
Sequence of Sigma intracellular receptor 2 (Q5BJF2 whole entry): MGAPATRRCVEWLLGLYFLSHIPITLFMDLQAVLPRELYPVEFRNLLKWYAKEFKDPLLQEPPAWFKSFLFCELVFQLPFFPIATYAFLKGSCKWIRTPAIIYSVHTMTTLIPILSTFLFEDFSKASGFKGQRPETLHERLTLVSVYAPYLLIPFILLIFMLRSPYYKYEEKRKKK
Sequence of D(3) dopamine receptor (P35462 whole entry): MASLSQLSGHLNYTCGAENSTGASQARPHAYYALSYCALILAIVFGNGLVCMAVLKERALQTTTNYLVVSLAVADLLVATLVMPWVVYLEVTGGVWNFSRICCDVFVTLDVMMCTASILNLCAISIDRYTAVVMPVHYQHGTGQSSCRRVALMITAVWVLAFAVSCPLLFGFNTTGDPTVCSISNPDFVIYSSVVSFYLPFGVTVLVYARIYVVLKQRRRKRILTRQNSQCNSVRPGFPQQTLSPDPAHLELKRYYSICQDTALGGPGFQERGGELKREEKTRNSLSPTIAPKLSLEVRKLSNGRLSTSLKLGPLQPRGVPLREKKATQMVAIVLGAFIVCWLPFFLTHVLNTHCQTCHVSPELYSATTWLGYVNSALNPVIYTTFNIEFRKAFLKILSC
Sequence of Sodium-dependent dopamine transporter (Q01959 whole entry): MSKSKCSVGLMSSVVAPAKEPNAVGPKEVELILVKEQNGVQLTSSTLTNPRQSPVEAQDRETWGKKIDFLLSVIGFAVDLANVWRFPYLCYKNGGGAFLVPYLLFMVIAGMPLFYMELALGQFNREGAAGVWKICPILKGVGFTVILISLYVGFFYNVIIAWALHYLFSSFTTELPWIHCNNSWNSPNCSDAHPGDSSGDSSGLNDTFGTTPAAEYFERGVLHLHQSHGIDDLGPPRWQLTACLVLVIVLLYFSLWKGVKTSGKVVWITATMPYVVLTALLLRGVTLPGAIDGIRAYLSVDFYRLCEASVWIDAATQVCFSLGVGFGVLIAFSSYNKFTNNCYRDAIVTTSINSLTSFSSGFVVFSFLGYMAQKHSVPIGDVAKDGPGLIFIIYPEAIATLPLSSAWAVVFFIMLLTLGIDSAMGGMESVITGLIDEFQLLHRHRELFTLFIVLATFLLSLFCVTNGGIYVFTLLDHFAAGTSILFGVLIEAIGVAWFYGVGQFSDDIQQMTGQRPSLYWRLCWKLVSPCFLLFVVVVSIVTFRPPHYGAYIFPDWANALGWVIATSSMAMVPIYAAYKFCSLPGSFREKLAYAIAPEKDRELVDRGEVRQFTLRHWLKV
Sequence of Beta-3 adrenergic receptor (P13945 whole entry): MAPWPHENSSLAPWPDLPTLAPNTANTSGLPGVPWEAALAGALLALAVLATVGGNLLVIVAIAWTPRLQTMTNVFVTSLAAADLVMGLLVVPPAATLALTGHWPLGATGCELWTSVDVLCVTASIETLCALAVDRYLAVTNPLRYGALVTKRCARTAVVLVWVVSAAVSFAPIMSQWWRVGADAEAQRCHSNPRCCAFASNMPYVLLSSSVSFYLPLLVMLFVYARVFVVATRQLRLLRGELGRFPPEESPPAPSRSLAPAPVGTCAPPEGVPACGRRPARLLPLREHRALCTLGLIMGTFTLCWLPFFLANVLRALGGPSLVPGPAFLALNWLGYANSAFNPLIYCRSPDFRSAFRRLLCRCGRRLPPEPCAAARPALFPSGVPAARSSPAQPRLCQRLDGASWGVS
Sequence of Kappa-type opioid receptor (P41145 whole entry): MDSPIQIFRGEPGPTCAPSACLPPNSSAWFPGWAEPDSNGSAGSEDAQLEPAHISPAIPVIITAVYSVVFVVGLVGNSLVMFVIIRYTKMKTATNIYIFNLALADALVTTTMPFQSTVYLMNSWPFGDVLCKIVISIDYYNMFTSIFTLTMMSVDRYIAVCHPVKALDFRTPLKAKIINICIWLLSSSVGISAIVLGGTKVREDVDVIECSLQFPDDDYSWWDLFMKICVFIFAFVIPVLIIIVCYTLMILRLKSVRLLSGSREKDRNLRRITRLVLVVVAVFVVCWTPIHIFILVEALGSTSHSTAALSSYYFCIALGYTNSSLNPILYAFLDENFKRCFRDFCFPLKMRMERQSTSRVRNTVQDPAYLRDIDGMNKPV
Sequence of Sodium-dependent serotonin transporter (P31645 whole entry): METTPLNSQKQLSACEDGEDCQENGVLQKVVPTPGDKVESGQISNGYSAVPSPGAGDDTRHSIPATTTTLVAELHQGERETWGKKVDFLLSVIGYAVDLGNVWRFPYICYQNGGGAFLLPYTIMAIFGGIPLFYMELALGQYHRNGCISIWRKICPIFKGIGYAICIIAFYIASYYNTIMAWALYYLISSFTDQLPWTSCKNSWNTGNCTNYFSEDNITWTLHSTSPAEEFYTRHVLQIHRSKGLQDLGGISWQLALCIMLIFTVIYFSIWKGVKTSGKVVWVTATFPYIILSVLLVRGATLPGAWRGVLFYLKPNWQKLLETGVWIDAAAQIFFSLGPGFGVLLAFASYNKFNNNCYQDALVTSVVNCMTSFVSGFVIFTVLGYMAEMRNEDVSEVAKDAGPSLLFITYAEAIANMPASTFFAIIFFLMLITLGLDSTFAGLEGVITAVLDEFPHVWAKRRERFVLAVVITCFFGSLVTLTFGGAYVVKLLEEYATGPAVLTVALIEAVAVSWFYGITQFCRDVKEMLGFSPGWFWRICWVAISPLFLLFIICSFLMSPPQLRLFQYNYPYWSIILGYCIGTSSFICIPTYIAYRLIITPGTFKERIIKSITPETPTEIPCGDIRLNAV
Sequence of D(1B) dopamine receptor (P21918 whole entry): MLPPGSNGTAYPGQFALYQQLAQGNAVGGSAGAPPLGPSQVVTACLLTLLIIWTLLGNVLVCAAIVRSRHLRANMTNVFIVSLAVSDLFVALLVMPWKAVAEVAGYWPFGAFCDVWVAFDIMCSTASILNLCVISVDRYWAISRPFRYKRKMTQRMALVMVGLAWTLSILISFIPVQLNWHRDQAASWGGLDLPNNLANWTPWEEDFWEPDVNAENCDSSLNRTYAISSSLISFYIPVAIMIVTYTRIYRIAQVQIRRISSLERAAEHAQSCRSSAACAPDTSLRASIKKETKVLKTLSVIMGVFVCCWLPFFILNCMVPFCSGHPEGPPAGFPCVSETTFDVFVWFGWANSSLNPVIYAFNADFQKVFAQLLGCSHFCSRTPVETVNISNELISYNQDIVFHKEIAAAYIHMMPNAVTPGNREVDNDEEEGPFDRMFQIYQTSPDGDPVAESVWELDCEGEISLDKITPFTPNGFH
Sequence of Sodium-dependent noradrenaline transporter (P23975 whole entry): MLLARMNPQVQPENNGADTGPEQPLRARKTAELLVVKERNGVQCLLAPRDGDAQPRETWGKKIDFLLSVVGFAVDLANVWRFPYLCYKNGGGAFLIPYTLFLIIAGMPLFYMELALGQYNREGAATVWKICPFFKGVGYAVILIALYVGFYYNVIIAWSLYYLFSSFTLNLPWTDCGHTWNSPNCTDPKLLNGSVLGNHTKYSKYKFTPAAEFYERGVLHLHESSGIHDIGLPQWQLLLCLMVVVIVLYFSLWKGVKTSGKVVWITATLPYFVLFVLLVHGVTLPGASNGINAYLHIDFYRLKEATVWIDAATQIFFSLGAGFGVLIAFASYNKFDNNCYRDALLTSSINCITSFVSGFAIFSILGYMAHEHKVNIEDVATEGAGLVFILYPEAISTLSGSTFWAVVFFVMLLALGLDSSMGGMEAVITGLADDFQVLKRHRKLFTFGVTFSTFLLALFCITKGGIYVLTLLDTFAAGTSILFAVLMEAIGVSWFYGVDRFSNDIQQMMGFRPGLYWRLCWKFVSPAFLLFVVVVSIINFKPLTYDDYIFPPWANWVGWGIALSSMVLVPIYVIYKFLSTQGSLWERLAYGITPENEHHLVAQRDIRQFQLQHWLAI
Sequence of Mu-type opioid receptor (P35372 whole entry): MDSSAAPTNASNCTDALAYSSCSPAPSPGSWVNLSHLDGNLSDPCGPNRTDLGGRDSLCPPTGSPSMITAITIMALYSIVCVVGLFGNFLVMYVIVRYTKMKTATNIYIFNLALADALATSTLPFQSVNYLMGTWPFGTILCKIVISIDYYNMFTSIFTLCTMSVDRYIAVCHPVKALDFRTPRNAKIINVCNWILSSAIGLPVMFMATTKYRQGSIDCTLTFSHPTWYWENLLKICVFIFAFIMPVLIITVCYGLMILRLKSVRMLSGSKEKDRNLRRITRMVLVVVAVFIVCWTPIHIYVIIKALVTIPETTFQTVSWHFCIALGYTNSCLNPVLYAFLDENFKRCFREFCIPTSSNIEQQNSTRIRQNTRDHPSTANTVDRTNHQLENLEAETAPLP

Structure (SMILES)	Ki [1] [µM]	Ki [3] [µM]	Ki [4] [µM]	Ki (D(3) dopamine receptor) [µM]	Ki (Translocator protein) [µM]	Ki [5] [µM]	Ki [8] [µM]	Ki [10] [µM]	other results
Cc1nc(C#Cc2ccnc(Cl)c2)c(C)n1-c1ccc(OC(F)(F)F)cc1	1.71	2.69	6.98	–	1.95	> 10	–	–	–
C[C@@H](NCCc1ccc(O)cc1)[C@@H](O)c1ccc(O)cc1 (relative stereo)	2.67	0.587	3.73	–	–	–	–	–	Ki [6]: 2.58 µM; Ki (Mu-type opioid receptor): 7.85 µM; Ki [7]: 4.05 µM
NC[C@@H]1O[C@H](C23CC4CC(CC(C4)C2)C3)Cc2c1ccc(O)c2O	0.754	–	–	0.545	–	0.89	0.898	0.478	Ki (D(1B) dopamine receptor): 0.00302 µM; Ki [6]: 0.951 µM; Ki (D(4) dopamine receptor): 0.562 µM; Ki [11]: 4.21 µM; Ki [9]: 0.0717 µM
CC(C)NCC(O)c1ccc(N)c(C#N)c1 (centres undefined) [CIMATEROL]	–	–	1.87	–	–	–	–	–	–
N#Cc1ccc(NC(=O)Nc2ccccc2Br)c2nn[nH]c12	–	–	8.66	–	3.03	–	–	2.85	–
CCC[C@H](Oc1cc(C)c(-n2cc(C(F)(F)F)cn2)c(C)c1)c1ccc(C(=O)NCCC(=O)O)cc1 [PF-06291874]	–	–	> 10	–	–	–	> 10	–	Ki [13]: 8.58 µM

The next lines start with results.

Ki [1] [µM]	Ki [3] [µM]	Ki [4] [µM]	Ki (D(3) dopamine receptor) [µM]	Ki (Translocator protein) [µM]	Ki [5] [µM]	Ki [8] [µM]	Ki [10] [µM]	Structure (SMILES)	other results
2	0.958	8.88	0.581	0.799	–	–	–	Cc1csc2c(N[C@@H](C)CN3CCN(S(=O)(=O)c4ccc(Cl)c(Cl)c4)CC3)ncnc12	Ki [2]: 0.494 µM
0.0102	–	–	0.568	–	0.311	1.18	–	CC1CCN(CC[C@H]2CCCN2S(=O)(=O)c2cccc(O)c2)CC1	Ki (D(1B) dopamine receptor): > 10 µM; Ki [2]: 0.448 µM; Ki (Mu-type opioid receptor): 0.185 µM; Ki [7]: > 10 µM; Ki [9]: 1.74 µM
–	–	> 10	1.11	1.38	–	> 10	0.402	Cc1cc([C@@H](C)Nc2cccc(-c3cc(C)c(C(=O)N[C@@H](C)C(=O)O)c(C)c3)c2)ccc1Cl	Ki [12]: 2.48 µM

From ChEMBL document CHEMBL5442175, “EUbOPEN Chemogenomics Library - PDSP Secondary Binding” (2024)
